These results are taken from patent publication US4877881A, “Process of preparing pyrazoles, isoxazoles and analogs thereof having activity as 5-lipoxygenase inhibitors” (Warner-Lambert Company, priority 1988, dated 1989).

In one test the target is T1, 5-lipoxygenase (Rattus norvegicus, UniProt P12527).
T1 construct: ARBL/ARBC Whole Cell 5-Lipoxygenase and Cyclooxygenase Assays; endogenous in cells; host or cells: RBL-1 rat basophilic leukemia cells (American Type Culture Collection)
T1 sequence (P12527 1-673): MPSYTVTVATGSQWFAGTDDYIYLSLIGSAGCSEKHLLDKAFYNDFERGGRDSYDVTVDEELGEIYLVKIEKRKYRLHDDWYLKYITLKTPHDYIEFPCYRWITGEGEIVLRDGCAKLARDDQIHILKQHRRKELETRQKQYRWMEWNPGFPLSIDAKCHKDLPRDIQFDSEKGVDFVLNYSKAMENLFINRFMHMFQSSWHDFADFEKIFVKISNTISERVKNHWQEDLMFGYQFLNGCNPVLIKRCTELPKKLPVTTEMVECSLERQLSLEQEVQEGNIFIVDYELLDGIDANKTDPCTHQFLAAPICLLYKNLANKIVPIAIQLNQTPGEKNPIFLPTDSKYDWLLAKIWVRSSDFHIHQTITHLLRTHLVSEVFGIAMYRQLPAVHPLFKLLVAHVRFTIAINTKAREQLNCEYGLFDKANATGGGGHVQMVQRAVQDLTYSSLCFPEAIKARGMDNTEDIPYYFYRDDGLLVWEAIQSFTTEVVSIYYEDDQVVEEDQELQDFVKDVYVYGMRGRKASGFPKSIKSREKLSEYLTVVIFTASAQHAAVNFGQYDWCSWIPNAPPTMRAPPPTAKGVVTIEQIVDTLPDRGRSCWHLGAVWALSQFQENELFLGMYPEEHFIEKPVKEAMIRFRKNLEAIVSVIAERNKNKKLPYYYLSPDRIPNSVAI
As to the kind of experiment: ARBL Whole Cell 5-Lipoxygenase Assay in RBL-1 cells (LTB4 RIA). It is filed as cell-based. The conditions noted are these: RBL-1 intact cell 5-lipoxygenase; A23187 5 μM. On the procedure: (§1) ARBL/ARBC Whole Cell 5-Lipoxygenase and Cyclooxygenase Assays
(§2) The rat basophilic leukemia cell line (RBL-1) was obtained from the American Type Culture Collection (Rockville, Md.).
(§3) Radioimmuno assay (RIA) kits of LTB4 and PGF2α were obtained from Amersham (Arlington Heights, Ill.) and Seragen (Boston, Mass.) respectively.
(§4) All tissue culture media were obtained from GIBO (Gran Island, N.Y.).
(§5) RBL-1 cells were grown in culture (suspension) in Eagle's minimum essential medium supplemented with 12% fetal bovine serum and 1:100 antibiotic-antimycotic mixture at 37° C. in an incubator supplied with air-5% carbon dioxide. Cells were harvested by centrifugation. They were washed with cold phosphate buffered saline pH 7.4 (PBS; NaCl, 7.1 g; Na2 HOP4, 1.15 g; KH2 PO4, 0.2 g; and KCl, 0.2 g/L). […] Calcium ionophore A23187 (5 μM) was added and cells were incubated for seven minutes at 37° C. The reaction was stopped by chilling the tubes in ice for ten minutes. Cells were separated by centrifugation and the supernatant was stored at -20°. Aliquots (100 μl) were analyzed for LTB4 and PGF2α using radioimmuno assay kits as provided by the supplier.

The next test concerns the target T2, cyclooxygenase (Rattus norvegicus, UniProt Q63921).
T2 construct: RBL-1 intact cell cyclooxygenase IC50 values; endogenous in cells; host or cells: RBL-1 rat basophilic leukemia cells (American Type Culture Collection)
T2 sequence (Q63921 27-602): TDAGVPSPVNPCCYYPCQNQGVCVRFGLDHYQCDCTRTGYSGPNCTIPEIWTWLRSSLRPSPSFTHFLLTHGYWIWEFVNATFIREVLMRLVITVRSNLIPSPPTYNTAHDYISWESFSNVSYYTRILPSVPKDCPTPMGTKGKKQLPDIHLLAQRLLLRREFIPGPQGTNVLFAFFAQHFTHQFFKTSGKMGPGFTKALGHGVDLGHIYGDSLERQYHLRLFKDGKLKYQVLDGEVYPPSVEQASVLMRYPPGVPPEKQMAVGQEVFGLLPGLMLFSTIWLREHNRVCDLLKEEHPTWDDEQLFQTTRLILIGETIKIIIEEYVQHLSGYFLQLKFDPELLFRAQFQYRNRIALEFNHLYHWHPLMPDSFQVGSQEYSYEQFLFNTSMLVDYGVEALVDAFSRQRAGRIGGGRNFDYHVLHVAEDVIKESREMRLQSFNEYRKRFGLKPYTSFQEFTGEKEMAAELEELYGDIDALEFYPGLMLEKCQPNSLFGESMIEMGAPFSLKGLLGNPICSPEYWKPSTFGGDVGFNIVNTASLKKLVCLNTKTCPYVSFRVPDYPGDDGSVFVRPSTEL
Briefly: ARBC Whole Cell Cyclooxygenase Assay in RBL-1 cells (PGF2α RIA). Format: cell-based. The following applies: RBL-1 intact cell cyclooxygenase; A23187 5 μM. How it is done: as §1, §2, §3, §4, §5

Structures are written as SMILES.

Broadly, the IC50 is the concentration that gives 50% inhibition. `COC(=O)C(=Cc1cc(C)c(O)c(C)c1)c1cc(C)no1` [Example 43, 5-[α-Carbomethoxy-β-(4'-hydroxy-3',5'-dimethylphenyl)ethenyl]-3-methylisoxazole]: the half-inhibitory concentration (IC50) against 5-lipoxygenase was determined as 17 µM; against cyclooxygenase, 2.2 µM. On to `COc1cccc(C=Cc2cc(C)no2)c1O` [Example 32F, 5-[β-(2'-Hydroxy-3'-methoxyphenyl)ethenyl]-3-methylisoxazole], for which the IC50 at 5-lipoxygenase stood at 12 µM; on cyclooxygenase, 30 µM.

Turning to `Cc1cc(C=Cc2cc(C(C)(C)C)c(O)c(C(C)(C)C)c2)nn1CC(=O)O` [Example 10Q, 3-[β-(4'-Hydroxy-3',5'-di-t-butylphenyl)ethenyl]-5-methyl-1H-pyrazole-1-acetic acid], the IC50 at 5-lipoxygenase and against cyclooxygenase was above 30 µM in each case. For the compound `COC(=O)Cn1nc(C=Cc2ccc(O)c(OC)c2)cc1C` [Example 10J, 3-[β-(4'-Hydroxy-3'-methoxyphenyl)ethenyl]-5-methyl-1H-pyrazole-1-acetic acid, methyl ester], the IC50 at 5-lipoxygenase was above 10 µM; on cyclooxygenase it was 30 µM.

As for `CCOC(=O)Cn1nc(C)cc1/C=C/c1cc(OC)c(O)c(OC)c1` [Example 10D, (E)-5-[β-(4'-Hydroxy-3',5'-dimethoxyphenyl)ethenyl]3-methyl-1H-pyrazole-1-acetic acid, ethyl ester], the values for the IC50 at 5-lipoxygenase and at cyclooxygenase were 0.3 µM and above 30 µM, respectively. For `COC(=O)Cn1nc(C=Cc2cc(OC)c(O)c(OC)c2)cc1C` [Example 10H, 3-[β-(4'-Hydroxy-3',5'-dimethoxyphenyl)ethenyl]-5-methyl-1H-pyrazole-1-acetic acid, methyl ester], in that order: 9.5 µM and above 30 µM. In turn, `COc1cc(C=Cc2cc(CCO)on2)ccc1O` [Example 36A, 3-[β-(4'-Hydroxy-3'-methoxyphenyl)ethenyl]-5-(2'-hydroxyethyl)isoxazole] yielded an IC50 on 5-lipoxygenase of 21.5 µM.

For `COc1cc(C=Cc2cc(C)[nH]n2)ccc1OC(C)=O` [Example 37, 3-[β-(4'-Acetoxy-3'-methoxyphenyl)ethenyl]-5-methylpyrazole], the IC50 on 5-lipoxygenase was 3.5 µM.

For `Cc1cc(C(=Cc2cc(C(C)(C)C)c(O)c(C(C)(C)C)c2)C(=O)O)on1` [Example 51, 5-[α-Carboxy-β-(4'-hydroxy-3',5'-bis(1,1-dimethylethyl)phenyl)ethenyl]-3-methylisoxazole], the values for the IC50 at 5-lipoxygenase and at cyclooxygenase were 20 µM and 2.5 µM, respectively. At 5-lipoxygenase, `COc1cc(C=Cc2cc(C)n(CC(=O)O)n2)ccc1O` [Example 10K, 3-[β-(4'-Hydroxy-3'-methoxyphenyl)ethenyl]-5-methyl-1H-pyrazole-1-acetic acid] came in with an IC50 above 20 µM. On to `Cc1cc(C(=Cc2cc(C)c(O)c(C)c2)C(=O)O)on1` [Example 52, 5-[α-Carboxy-β-(4'-hydroxy-3',5'-dimethylphenyl)ethenyl]-3-methylisoxazole], for which the IC50 against 5-lipoxygenase and at cyclooxygenase was above 20 µM each time. Take `COC(=O)C(=Cc1cc(Br)c(O)c(OC)c1)c1cc(C)no1` [Example 46A, 5-[α-Carbomethoxy-β-(3'-methoxy-4'-hydroxy-5'-bromophenyl)ethenyl]-3-methylisoxazole]: the half-maximal inhibitory concentration (IC50) against 5-lipoxygenase was above 30 µM; on cyclooxygenase it was 12 µM. For `COc1cc(C=Cc2cc(-c3ccccc3)no2)cc(OC)c1O` [Example 32D, 5-[β(4'-Hydroxy-3',5'-dimethoxyphenyl)ethenyl]-3-phenylisoxazole], in that order: below 1 µM and 5.4 µM. As to `Cc1cc(C=Cc2cc(C(C)(C)C)c(O)c(C(C)(C)C)c2)n(CC(=O)O)n1` [Example 10P, 5-[β-(4'-Hydroxy-3',5'-di-t-butylphenyl)ethenyl]-3-methyl-1H-pyrazole-1-acetic acid], the IC50 on 5-lipoxygenase was 12 µM; at cyclooxygenase it was above 30 µM. Take `COc1cc(C=Cc2cc(C)nn2CC(=O)O)ccc1O` [Example 10L, 5-[β-(4'-Hydroxy-3'-methoxyphenyl)ethenyl]-3-methyl-1H-pyrazole-1-acetic acid]: the IC50 against 5-lipoxygenase was above 20 µM. For `COc1cc(C=Cc2cc(C)nn2CC(=O)O)cc(OC)c1O` [Example 10M, 5-[β-(4'-Hydroxy-3',5'-dimethoxyphenyl)ethenyl]-3-methyl-1H-pyrazole-1-acetic acid], the IC50 on 5-lipoxygenase and at cyclooxygenase was above 30 µM each time. Turning to `COC(=O)Cn1nc(C=Cc2cc(C(C)(C)C)c(O)c(C(C)(C)C)c2)cc1C` [Example 10G-1, 3-[β-(4'-Hydroxy-3',5'-di-t-butylphenyl)ethenyl]-5-methyl-1H-pyrazole-1-acetic acid, methyl ester], the IC50 against 5-lipoxygenase was 4.5 µM; against cyclooxygenase it was above 30 µM.

Turning to `COC(=O)Cn1nc(C)cc1C=Cc1ccc(O)c(OC)c1` [Example 10I, 5-[β-(4'-Hydroxy-3'-methoxyphenyl)ethenyl]-3-methyl-1H-pyrazole-1-acetic acid methyl ester], the values for the IC50 on 5-lipoxygenase and at cyclooxygenase were above 10 µM and above 25 µM, respectively.

In the case of `Cc1cc(C=Cc2cc(Cl)cc(Cl)c2O)on1` [Example 32J, 5-[β-(2'-Hydroxy-3',5'-dichlorophenyl)ethenyl]-3-methylisoxazole], the IC50 on 5-lipoxygenase was 4.7 µM; on cyclooxygenase, above 30 µM.

As to `COC(=O)C(=Cc1cc(Cl)c(O)c(Cl)c1)c1cc(C)no1` [Example 41, 5-[α-Carbomethoxy-β-(4'-hydroxy-3,5-dichlorophenyl)ethenyl]-3-methylisoxazole], the IC50 is above 30 µM against 5-lipoxygenase and 5 µM against cyclooxygenase. On the same counts, the results for `COC(=O)Cn1nc(C)cc1C=Cc1cc(C(C)(C)C)c(O)c(C(C)(C)C)c1` [Example 10G-2, 5-[β-(4'-hydroxy-3',5'-di-t-butylphenyl)ethenyl]-3-methyl-1H-pyrazole-1-acetic acid, methyl ester] are 4.1 µM and above 30 µM.

As for `COC(=O)C(=Cc1cc(OC)c(O)c(OC)c1)c1cc(C)no1` [Example 40, 5-[β-Carbomethoxy-β-(4'-hydroxy-3',5'-dimethoxyphenyl)ethenyl]-3-methylisoxazole], the values for the IC50 against 5-lipoxygenase and against cyclooxygenase were above 10 µM and above 25 µM, respectively. On the same counts, the results for `COc1cc(C=Cc2cc(C)n(CC(=O)O)n2)cc(OC)c1O` [Example 10N, 3-[β-(4'-hydroxy-3',5'-dimethoxyphenyl)ethenyl]-5-methyl-1H-pyrazole-1-acetic acid] are above 20 µM and above 30 µM. On the same counts, the results for `COC(=O)C(=Cc1cc(Br)c(O)c(Br)c1)c1cc(C)no1` [Example 44, 5-[α-Carbomethoxy-β-(4'-hydroxy-3',5'-dibromophenyl)ethenyl]-3-methylisoxazole] are 12 µM and 5.2 µM.

Turning to `COc1cc(C=Cc2cc(-c3ccccc3)no2)ccc1O` [Example 32E, 5-[β-(4'-Hydroxy-3'-methoxyphenyl)ethenyl]-3-phenyl-isoxazole], the IC50 stood at 4.5 µM against 5-lipoxygenase and 2.8 µM against cyclooxygenase. For `COc1cc(C=Cc2cc(C(F)(F)F)[nH]n2)ccc1O` [Example 10A, 3-[β-(4'-Hydroxy-3'-methoxyphenyl)ethenyl]-5-trifluoromethylpyrazole], in that order: 3.8 µM and 4.5 µM.
